The test system of test [1] is HT29 cells. Nature of the test: Cellular SRB assay, potentiation of carboplatin (Test (c)). Particulars: for PF50: HT29. It is filed as cell-based, human. The procedure:
(c) Cellular—SRB Assay The potentiation factor (PF50) for compounds is a measure of the fold increase in effect of a chemotherapeutic agent, when used in combination with an ATR inhibitor. Specifically, this is calculated as a ratio of the IC50 of control cell growth in the presence of a chemotherapeutic agent, typically carboplatin, divided by the IC50 of cell growth in the presence of this agent and the ATR inhibitor of interest. For this purpose, HT29 cells were seeded at the appropriate density to ensure exponential growth throughout the time of the assay (typically 1000-1500 cells) in each well of a 96-well plate, in a volume of 80 μl and incubated overnight at 37° C. Subsequently, cells were dosed with either DMSO vehicle, or treated with test compounds at fixed concentrations (typically 1, 0.3 & 0.1 μM). Following a one hour incubation at 37° C., the cells were further treated with a 10 point dose response of the chemotherapeutic agent, based on it's known sensitivity (typically 30-0.001 ug/ml for carboplatin). Cells were left to grow for 5 days at 37° C., after which time cell growth was assessed using the sulforhodamine B (SRB) assay (Skehan, P et al, 1990 New colorimetric cytotoxic assay for anticancer-drug screening. J. Natl. Cancer Inst. 82, 1107-1112.). Specifically, the media was removed and cells fixed with 100 μl of ice cold 10% (w/v) trichloroacetic acid. The plates were then incubated at 4° C. for 20 minutes prior to washing 4 times with water. Each well was then stained with 100 μL of 0.4% (w/v) SRB in 1% acetic acid for 20 minutes before a further 4 washes with 1% acetic acid. Plates were then dried for 2 hours at room temperature and the dye was solubilized by the addition of 100 μL Tris Base pH 8.5 into each well. Plates were shaken before measuring optical density at 564 nm (OD564). In order to calculate the PF50, the OD564 values obtained for the dose-response curve of chemotherapeutic agent were expressed as a percentage of the value obtained from cells treated with vehicle alone. Similarly, to act as a control for inclusion of the ATR inhibitor, values from the chemotherapeutic agent tested in combination with a fixed ATR inhibitor concentration were expressed as a percentage of the value obtained from cells treated with the corresponding concentration of ATR inhibitor alone. From these internally-controlled curves, IC50 values were calculated and the PF50 was determined as the ratio of these values, as described above. Compounds are compared using the PF50 value at concentrations of ATR inhibitor that show minimal growth inhibition on their own. IC50 values were calculated with XLfit (IDBS, Surrey UK) using the dose response, 4 parameter logistic model #203. Top (max) and bottom (min) curve fitting was free and not locked to 100% to 0% respectively.
In general terms: Sulforhodamine B stains cellular protein and so reports cell mass.

Test [2] addresses T1, ATR (Homo sapiens (Human), UniProt Q13535). In words: Cellular Assay - ATR, phosphorylation of Chk1 (Ser 345) in HT29 cells after 4NQO (Test (b)). It is filed as cell-based. Particulars: cell assay Test (b); pChk1 Ser345 in HT29 cells, 3 μM 4NQO; arithmetic mean. An excerpt:
ATM and ATR have distinct and overlapping responses to DNA damage. They must participate together and responses must be co-ordinated. Both pathways may be activated by ionising radiation, however only ATR is activated by UV. Since UV treatment is not practical for use in a high throughput cell assay, the UV mimetic 4NQ0 (Sigma) was chosen to activate the ATR DNA damage response pathway.
Chk1, a downstream protein kinase of ATR, plays a key role in DNA damage checkpoint control. Activation of Chk1 involves phosphorylation of Ser317 and Ser345 (regarded as the preferential target for phosphorylation/activation by ATR). […] Compounds dose ranges were created by diluting in 100% DMSO and then further into assay media (EMEM, 10% FCS, 1% glutamine) using a Labcyte Echo Acoustic dispensing instrument. Cells were plated in 384 well Costar plates at 9×10^4 cells per ml in 40 μL EMEM, 10% FCS, 1% glutamine and grown for 24 hrs. Following addition of compound the cells were incubated for 60 minutes. A final concentration of 3 μM 4NQ0 (prepared in 100% DMSO) was then added using the Labcyte Echo and the cells incubated for a further 60mins. The cells are then fixed by adding 40 μL 3.7% v/v formaldehyde solution for 20 minutes. After removal of fix, cells were washed with PBS and permeabilised in 40 μL of PBS containing 0.1% Triton™ X-100. Cells are then washed and 15 μl primary antibody solution (pChk1 Ser345) added and the plates incubated at 4° C. overnight. […] The plates are washed and left in 40 μl PBS. Plates were then read on an ArrayS can Vti instrument to determine staining intensities, and dose responses were obtained and used to determine the IC50 values for the compounds.

Test [3] concerns the target T1, ATR. Nature of the test: Enzyme Assay - ATR (Test (a)). The format is biochemical. The conditions noted are these: ATR from HeLa nuclear extract, GST-p53N66 substrate, 3 μM ATP, arithmetic mean. The procedure:
ATR-antibody complexes were isolated from nuclear extract by incubating with protein A-Sepharose beads (Sigma, #P3476) for 1 hour and then through centrifugation to recover the beads. […] After 10 minutes with gentle shaking, ATP was added to a final concentration of 3 μM and the reaction continued at 37° C. for an additional 1 hour. […] Enhanced chemiluminescence solution (NEN, Boston, Mass.) was used to produce a signal and chemiluminescent detection was carried out via a TopCount (Packard, Meriden, Conn.) plate reader.

Setting [4] is: potentiation factor of Carboplatin at 0.03 uM ATR inhibitor.
Where [5] appears, read: potentiation factor of Carboplatin at 0.1 uM ATR inhibitor.
[6] abbreviates: potentiation factor of Carboplatin at 0.3 uM ATR inhibitor.
[7] abbreviates: Homo sapiens, HT-29, HT29 cell growth, IC50 of Carboplatin + 0.03 uM ATR inhibitor, read-out: IC50.
[8] abbreviates: Homo sapiens, HT-29, HT29 cell growth, IC50 of Carboplatin + 0.1 uM ATR inhibitor, read-out: IC50.
Setting [9] is: Homo sapiens, HT-29, HT29 cell growth, IC50 of Carboplatin + 0.3 uM ATR inhibitor, read-out: IC50.

Values joined by “and” are separate entries in the source; they are usually repeats but may differ in a detail not shown here. Equal entries are not always repeated. Where two headings read alike, the source gives them in different places.

T1 sequence (Q13535 whole entry): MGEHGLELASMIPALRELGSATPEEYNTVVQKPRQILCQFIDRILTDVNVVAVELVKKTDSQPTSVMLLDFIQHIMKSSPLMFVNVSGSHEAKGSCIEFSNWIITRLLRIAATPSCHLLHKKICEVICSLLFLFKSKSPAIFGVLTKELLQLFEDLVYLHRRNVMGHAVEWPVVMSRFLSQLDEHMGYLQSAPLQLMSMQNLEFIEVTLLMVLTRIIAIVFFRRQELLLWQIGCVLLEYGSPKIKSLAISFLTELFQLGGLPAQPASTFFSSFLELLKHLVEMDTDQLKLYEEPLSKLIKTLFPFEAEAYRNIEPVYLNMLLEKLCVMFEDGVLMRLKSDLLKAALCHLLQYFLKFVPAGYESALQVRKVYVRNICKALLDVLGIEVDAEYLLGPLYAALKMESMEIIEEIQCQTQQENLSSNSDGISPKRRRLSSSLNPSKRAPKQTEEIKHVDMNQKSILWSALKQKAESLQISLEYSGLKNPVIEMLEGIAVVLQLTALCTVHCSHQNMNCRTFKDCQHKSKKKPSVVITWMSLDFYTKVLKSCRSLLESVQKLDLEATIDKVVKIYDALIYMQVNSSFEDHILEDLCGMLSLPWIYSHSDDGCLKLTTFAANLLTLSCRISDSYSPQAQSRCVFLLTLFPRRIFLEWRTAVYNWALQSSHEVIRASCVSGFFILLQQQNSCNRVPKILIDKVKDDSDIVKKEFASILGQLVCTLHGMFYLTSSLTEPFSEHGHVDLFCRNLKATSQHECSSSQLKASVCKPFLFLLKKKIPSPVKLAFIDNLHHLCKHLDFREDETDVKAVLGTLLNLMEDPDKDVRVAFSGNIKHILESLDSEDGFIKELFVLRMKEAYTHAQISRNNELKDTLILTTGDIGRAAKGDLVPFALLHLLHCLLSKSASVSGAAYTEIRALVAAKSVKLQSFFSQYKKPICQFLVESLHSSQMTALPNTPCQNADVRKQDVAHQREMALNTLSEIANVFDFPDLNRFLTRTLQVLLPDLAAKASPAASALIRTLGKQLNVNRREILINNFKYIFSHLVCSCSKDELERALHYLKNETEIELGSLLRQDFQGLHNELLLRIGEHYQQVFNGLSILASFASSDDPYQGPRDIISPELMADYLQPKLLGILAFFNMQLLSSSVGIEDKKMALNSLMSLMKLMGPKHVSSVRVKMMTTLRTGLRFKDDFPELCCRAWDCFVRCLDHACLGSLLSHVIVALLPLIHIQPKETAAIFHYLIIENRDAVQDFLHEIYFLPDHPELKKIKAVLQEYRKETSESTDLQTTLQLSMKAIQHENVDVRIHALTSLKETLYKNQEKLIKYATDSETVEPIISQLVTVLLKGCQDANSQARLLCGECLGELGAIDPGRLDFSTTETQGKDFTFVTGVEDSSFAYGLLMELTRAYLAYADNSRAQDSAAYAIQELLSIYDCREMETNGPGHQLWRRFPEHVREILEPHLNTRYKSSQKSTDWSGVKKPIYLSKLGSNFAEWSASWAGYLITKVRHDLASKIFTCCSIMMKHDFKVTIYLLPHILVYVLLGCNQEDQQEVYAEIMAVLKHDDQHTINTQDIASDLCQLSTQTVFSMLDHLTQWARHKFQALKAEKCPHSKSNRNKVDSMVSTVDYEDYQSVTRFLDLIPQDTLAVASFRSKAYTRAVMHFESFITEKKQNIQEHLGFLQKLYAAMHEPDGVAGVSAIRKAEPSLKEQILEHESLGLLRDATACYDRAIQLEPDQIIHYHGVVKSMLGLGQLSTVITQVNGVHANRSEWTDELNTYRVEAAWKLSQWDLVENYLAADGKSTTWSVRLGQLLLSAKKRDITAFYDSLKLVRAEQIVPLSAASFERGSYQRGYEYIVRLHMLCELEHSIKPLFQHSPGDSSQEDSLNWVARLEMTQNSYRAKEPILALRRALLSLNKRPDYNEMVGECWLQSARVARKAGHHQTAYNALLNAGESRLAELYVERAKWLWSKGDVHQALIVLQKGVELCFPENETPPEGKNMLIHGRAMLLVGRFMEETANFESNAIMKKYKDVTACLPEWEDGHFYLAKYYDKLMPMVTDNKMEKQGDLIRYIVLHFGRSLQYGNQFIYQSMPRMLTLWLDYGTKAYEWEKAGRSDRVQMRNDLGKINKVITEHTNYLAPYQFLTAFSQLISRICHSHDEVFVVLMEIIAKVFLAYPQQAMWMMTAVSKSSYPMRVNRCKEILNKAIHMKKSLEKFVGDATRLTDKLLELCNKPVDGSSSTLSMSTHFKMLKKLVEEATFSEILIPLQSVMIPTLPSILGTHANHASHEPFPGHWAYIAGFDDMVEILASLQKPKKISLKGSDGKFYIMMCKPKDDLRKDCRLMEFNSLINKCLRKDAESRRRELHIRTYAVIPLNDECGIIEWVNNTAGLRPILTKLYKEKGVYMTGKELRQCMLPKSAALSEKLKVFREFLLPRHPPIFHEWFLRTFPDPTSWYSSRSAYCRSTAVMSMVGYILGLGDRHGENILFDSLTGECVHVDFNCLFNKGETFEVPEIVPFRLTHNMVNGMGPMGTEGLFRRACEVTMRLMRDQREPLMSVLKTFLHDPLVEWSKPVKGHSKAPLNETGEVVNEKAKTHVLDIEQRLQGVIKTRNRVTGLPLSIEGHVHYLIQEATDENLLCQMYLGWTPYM
T1 sequence (Q8WXE1 whole entry partner): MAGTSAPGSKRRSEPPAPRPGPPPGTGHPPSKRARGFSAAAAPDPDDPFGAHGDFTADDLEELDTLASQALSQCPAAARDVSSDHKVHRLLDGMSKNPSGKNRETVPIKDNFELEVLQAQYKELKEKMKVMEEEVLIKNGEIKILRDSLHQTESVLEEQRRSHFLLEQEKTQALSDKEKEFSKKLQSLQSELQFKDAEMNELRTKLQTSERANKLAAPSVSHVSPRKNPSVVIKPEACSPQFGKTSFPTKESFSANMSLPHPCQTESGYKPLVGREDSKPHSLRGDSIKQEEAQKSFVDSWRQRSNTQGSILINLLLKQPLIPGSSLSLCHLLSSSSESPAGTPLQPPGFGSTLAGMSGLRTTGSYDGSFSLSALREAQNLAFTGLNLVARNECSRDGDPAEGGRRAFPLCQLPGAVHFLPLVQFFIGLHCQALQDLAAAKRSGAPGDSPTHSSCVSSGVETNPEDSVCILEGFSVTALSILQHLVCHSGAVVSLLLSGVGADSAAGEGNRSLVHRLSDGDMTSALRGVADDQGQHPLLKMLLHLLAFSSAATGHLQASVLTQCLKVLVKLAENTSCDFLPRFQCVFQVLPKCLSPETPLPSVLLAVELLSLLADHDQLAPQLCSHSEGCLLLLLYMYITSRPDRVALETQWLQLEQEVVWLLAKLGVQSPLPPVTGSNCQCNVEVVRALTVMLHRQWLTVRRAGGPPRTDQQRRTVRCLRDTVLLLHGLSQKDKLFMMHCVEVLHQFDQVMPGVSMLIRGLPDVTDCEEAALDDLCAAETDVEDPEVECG

Turning to `C[C@@H]1COCCN1c1cc(C2([S@](C)(=N)=O)CC2)nc(-c2ccnc3[nH]ccc23)n1` [Example 2.02, 4-{4-[(3R)-3-Methylmorpholin-4-yl]-6-[1-((R)—S-methylsulfonimidoyl)cyclopropyl]pyrimidin-2-yl}-1H-pyrrolo[2,3-b]pyridine], the PF50 in test [1] (setting [4]) is reported as 1.331; in test [1] (setting [5]) it was 1.966; in test [1] (setting [6]) it was 4.211. The figures for the IC50 in test [1] (setting [7]), in test [1] (setting [8]) and in test [1] (setting [9]) were 9.39 µg/mL, 6.37 µg/mL and 2.99 µg/mL, respectively.
As to `C[C@@H]1COCCN1c1cc(C[S@](C)(=N)=O)nc(-c2ccnc3[nH]ccc23)n1` [Example 1.01, 4-{4-[(3R)-3-Methylmorpholin-4-yl]-6-[((R)—S-methylsulfonimidoyl)methyl]pyrimidin-2-yl}-1H-pyrrolo[2,3-b]pyridine], the half-maximal inhibitory concentration (IC50) – broadly, the concentration at which inhibition is half-maximal – was found to be 581 nM in test [2] and 34 nM in test [3].
`N.N.O=C([O-])C1(C(=O)[O-])CCC1.[Pt+2]` [Carboplatin, reference compound]: in test [1] (HT29 cell growth, Carboplatin alone, 5 days, SRB), the IC50 was 12.519 µg/mL and 11.798 µg/mL.
Take `CNc1nc2ccccc2n1-c1nc(N2CCOC[C@H]2C)cc(C2([S@](C)(=N)=O)CC2)n1` [Example 2.03, N-Methyl-1-{4-[(3R)-3-methylmorpholin-4-yl]-6-[1-((R)—S-methylsulfonimidoyl)cyclopropyl]pyrimidin-2-yl}-1H-benzimidazol-2-amine]: the PF50 in test [1] (setting [4]) was 2.057; in test [1] (setting [5]), 5.887; in test [1] (setting [6]) it was 18.721. Besides, the values for the IC50 in test [1] (setting [7]), in test [1] (setting [8]) and in test [1] (setting [9]) were 5.74 µg/mL, 2.01 µg/mL and 0.63 µg/mL, respectively.

These data come from patent US8552004B2, “Chemical compounds” (AstraZeneca AB, priority 2010, dated 2013).
